US20100184770A1, “COMPOUNDS” (Glaxo Group Limited, priority 2006, published 2010)

Columns and labels:
[1] = tested on: histamine-induced congestion; test: Intranasal challenge method: whole body plethysmography; type: in vivo, guinea pigs; settings: for inhibition of the response to histamine challenge (PenH AUC): dosed intranasally at 1 mg/ml either 1 hr or 24 hr before histamine challenge
Method: Female Dunkin-Hartley guinea pigs 150-250 g are sensitised twice daily for 5 days (week 1) with ovalbumin (OVA) and aluminium hydroxide (Al(OH)3 or Alum) in physiological saline, 25 μl/nostril. Solution is made up at 20 μg/ml OVA, 180 mg/ml Alum. During weeks 2 and 3 animals receive 25 μl/nostril of OVA (5 mg/ml) once daily. During Week 4 guinea pigs will be entered into study but are continually sensitized as per weeks 2 and 3 until the day before dosing with compound or vehicle.
Pretreatment with test compound is performed at various times prior to histamine challenge. Efficacy dose-response curves are determined 1 hr and/or 3 hr after dosing whereas duration of action may be studied up to 7 days post dose. Test compounds are formulated as solutions in 0.9% sterile saline or suspensions in 0.9% sterile saline/tween80.
Guinea pigs were anaesthetised with isoflurane (5%, 2-31/min O2), placed in a supine position, and 25 μl of test compound or vehicle dosed into each nostril using a Gilson pipette. After dosing, animals remain supine for at least 30 seconds during recovery from anaesthesia.
At 30 minutes before the time of histamine challenge, guinea pigs are dosed with atropine sulphate (Sigma A0257, dissolved in saline), 1 mg/kg i.p. Animals are then placed into whole body plethysmograph systems (Buxco® Electronics) where the parameter PenH area under curve (AUC) is recorded as outlined in […], E., SCHWARZE, J., TAKEDA, K., OSHIBA, A., LARSEN, L., IRVIN, C. G. & GELFAND, E. W. (1997) Noninvasive measurement of airway responsiveness in allergic mice using barometric plethysmography. Am. J. Respir. Crit. Care Med. 156, 766-775.
Hamelmann et al. A 10 minute baseline AUC is recorded and if this value is over 1000, the animals are excluded.
After the stipulated pre-dose time has been reached, guinea pigs are re-anaesthetised with isoflurane and dosed with either 10 mM or 15 mM histamine or phosphate-buffered saline (PBS), (25 μl per nostril). On recovery from anaesthesia animals are returned to the individual plethysmograph chambers and 4×10 min consecutive PenH AUC recordings are made. These recordings are summed to give a cumulative AUC over 40 mins post histamine challenge for each animal. Data are analysed using ANOVA with post-hoc Fishers LSD test (general linear models, Statistica®) and finally Hochberg adjustment. Inhibition of histamine-induced congestion is determined by statistically significant differences between the mean responses of compound pre-treated groups compared to the vehicle pre-treated, histamine-challenged group.

human H1 receptor [2] = target: T1, human H1 receptor (Homo sapiens, UniProt P35367); test: Histamine H1 functional antagonist assay: determination of antagonist duration (washout, FLIPR); type: cell-based; settings: at one or more time points after washout
T1 construct: expressed in transfected cells
Method: (§1) 1. Generation of Histamine H1 Cell Line The human H1 receptor is cloned using known procedures described in the literature [Biochem. Biophys. Res. Commun., 201(2):894 (1994)]. Chinese hamster ovary (CHO) cells stably expressing the human H1 receptor are generated according to known procedures described in the literature [Br. J. Pharmacol., 117(6):1071 (1996)].
To determine the antagonist duration, cells are cultured overnight in non-coated black-walled clear bottom 96-well tissue culture plates, are washed with PBS and are incubated with a concentration of antagonist chosen to give an approximate DR in the range 30-300. Following the 30 min antagonist incubation period, the cells are washed two or three times with 200 μl of PBS and then 100 μl Tyrodes buffer is added to each well to initiate antagonist dissociation. Following incubation for predetermined times, typically 30-270 min at 37° C., the cells are then washed again with 200 μl PBS and are incubated with 100 Tyrodes buffer containing Brilliant Black, probenecid and Fluo-4 for 45 min at 37° C., as described above. After this period, the cells are challenged with histamine in the FLIPR™ as described above. The dose ratio at each time point is used to determine the fractional H1 receptor occupancy by the following equation: fractional receptor occupancy=(DR-1)/DR. The decrease in receptor occupancy over time approximates to a straight line and is analysed by linear regression. The slope of this straight line fit is used as an index of the dissociation rate of the antagonist. The dose ratios for antagonist treated cells and for antagonist treated and washed cells at each time point are used to calculate a relative dose ratio (rel DR) which is also used as an index of antagonist duration. Antagonists with long duration of action produce rel DR values close to 1, and antagonists with short duration of action produce rel DR values that approaches the dose ratio value obtained for antagonist treatment alone.

human H1 receptor [3] = target: T1, human H1 receptor; test: Histamine H1 functional antagonist assay: determination of functional pKi values (FLIPR); type: cell-based; settings: CHO cells expressing human H1 receptor, histamine at EC80, FLIPR, read-out: average pKi (pKb) at H1 (converted)
Method: as §1
The histamine H1 cell line is seeded into non-coated black-walled clear bottom 384-well tissue culture plates in alpha minimum essential medium (Gibco/Invitrogen, cat no. 22561-021), supplemented with 10% dialysed foetal calf serum (Gibco/Invitrogen cat no. 12480-021) and 2 mM L-glutamine (Gibco/Invitrogen cat no 25030-024) and is maintained overnight at 5% CO2, 37° C.
Excess medium is removed from each well to leave 10 μl. 30 μl loading dye (250 μM Brilliant Black, 2 μM Fluo-4 diluted in Tyrodes buffer+probenecid (145 mM NaCl, 2.5 mM KCl, 10 mM HEPES, 10 mM D-glucose, 1.2 mM MgCl2, 1.5 mM CaCl2, 2.5 mM probenecid, pH adjusted to 7.40 with NaOH 1.0 M)) is added to each well and the plates are incubated for 60 min at 5% CO2, 37° C.
10 μl of test compound, diluted to the required concentration in Tyrodes buffer+probenecid (or 10 μl Tyrodes buffer+probenecid as a control) is added to each well and the plate is incubated for 30 min at 37° C., 5% CO2. The plates are then placed into a FLIPR™ (Molecular. Devices, UK) to monitor cell fluorescence (λex=488 nm, λEM=540 nm) in the manner described in Sullivan et al., (In: Lambert DG (ed.), Calcium Signaling Protocols, New Jersey: Humana Press, 1999, 125-136) before and after the addition of […] at a concentration that results in the final assay concentration of histamine being EC80.
Functional antagonism is indicated by a suppression of histamine induced increase in fluorescence, as measured by the FLIPR™ system (Molecular Devices). By means of concentration effect curves, functional affinities are determined using standard pharmacological mathematical analysis.

T1 sequence (P35367 whole entry): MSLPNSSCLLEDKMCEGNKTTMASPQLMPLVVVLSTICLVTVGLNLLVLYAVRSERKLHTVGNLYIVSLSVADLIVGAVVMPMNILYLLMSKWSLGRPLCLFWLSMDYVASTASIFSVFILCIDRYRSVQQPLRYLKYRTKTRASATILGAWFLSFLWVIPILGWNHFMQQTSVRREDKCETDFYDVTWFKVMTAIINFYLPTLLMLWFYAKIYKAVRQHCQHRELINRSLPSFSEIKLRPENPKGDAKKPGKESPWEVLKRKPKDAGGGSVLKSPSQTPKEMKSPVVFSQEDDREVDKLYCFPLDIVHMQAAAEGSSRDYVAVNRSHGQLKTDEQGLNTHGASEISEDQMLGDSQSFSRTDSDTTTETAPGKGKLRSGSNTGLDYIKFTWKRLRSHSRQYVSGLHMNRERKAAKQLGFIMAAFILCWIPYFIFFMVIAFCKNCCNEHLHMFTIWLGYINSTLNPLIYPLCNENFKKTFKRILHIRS

Structure (SMILES) | inhibition of the response to histamine challenge (PenH AUC) [1] | inhibition of the response to histamine challenge (PenH AUC), 3 hr timepoint ([1]; another experiment, dosed intranasally at 1 mg/ml and at 10 mg/ml 3 hr before histamine challenge) | inhibition of the response to histamine challenge (PenH AUC), 24 hr timepoint ([1]; another experiment, dosed intranasally at 1 mg/ml and at 10 mg/ml 24 hr before histamine challenge) | duration of action compared with azelastine in the histamine H1 functional antagonist assay (human H1 receptor [2]) | Ki (human H1 receptor [3]) [nM]
COCCCC(=O)NCCN1CCC[C@@H]1Cn1nc(Cc2ccc(Cl)cc2)c2ccccc2c1=O.O=C(O)C(F)(F)F [Example 34c, N-[2-((2R)-2-{[4-[(4-Chlorophenyl)methyl]-1-oxo-2(1H)-phthalazinyl]methyl}-1-pyrrolidinyl)ethyl]-4-(methyloxy)butanamide, trifluoroacetate salt] | significantly (p<0.05) inhibited the response at both timepoints | – | – | – | –
CN1CCCC(n2nc(Cc3ccc(Cl)cc3)c3ccccc3c2=O)CC1 (stereo not drawn) [azelastine, reference compound] | failed to show a similar duration of action | – | – | – | –
COCCCC(=O)NCCN1CCC[C@@H]1Cn1nc(Cc2ccc(Cl)cc2)c2ccccc2c1=O [Example 34, N-[2-((2R)-2-{[4-[(4-Chlorophenyl)methyl]-1-oxo-2(1H)-phthalazinyl]methyl}-1-pyrrolidinyl)ethyl]-4-(methyloxy)butanamide] | significantly (p<0.05) inhibited the response at both timepoints | significantly (p<0.05) inhibited the response at the 3 hr timepoint | not the 24 hr timepoint | – | –
COCCCC(=O)NCCN1CCC[C@@H]1Cn1nc(Cc2ccc(Cl)cc2)c2ccccc2c1=O.Cl [Example 34a, N-[2-((2R)-2-{[4-[(4-Chlorophenyl)methyl]-1-oxo-2(1H)-phthalazinyl]methyl}-1-pyrrolidinyl)ethyl]-4-(methyloxy)butanamide, hydrochloride salt] | significantly (p<0.05) inhibited the response at both timepoints | – | – | – | –
O=C(CC(F)(F)F)NCCN1CCC[C@@H]1Cn1nc(Cc2ccc(Cl)cc2)c2ccccc2c1=O.O=C(O)C(F)(F)F [Example 36b, N-[2-((2R)-2-{[4-[(4-chlorophenyl)methyl]-1-oxo-2(1H)-phthalazinyl]methyl}-1-pyrrolidinyl)ethyl]-3,3,3-trifluoropropanamide, trifluoroacetate] | significantly (p<0.05) inhibited the response at both timepoints | – | – | longer duration of action than azelastine | < 31.6
